Laboratory results reported in patent publication US6949542B2, “Dihydro-benzo[b][1,4]diazepin-2-one derivatives” (Hoffman-La Roche Inc., priority 2002, dated 2005).

Row | SMILES | melting point [°C]
1 | CCOc1cc2c(cc1C(F)(F)F)NC(=O)CC(c1cccc(-c3cc(C)ncc3CC)c1)=N2 [Example 152, 4-[3-(5-Ethyl-2-methyl-pyridin-4-yl)-phenyl]-7-ethoxy-8-trifluoromethyl-1,3-dihydro-benzo[b][1,4]diazepin-2-one] | 191
2 | Cc1ncccc1-c1cccc(C2=Nc3ccc(-c4ccccc4F)cc3NC(=O)C2)c1 [Example 19, 8-(2-Fluoro-phenyl)-4-[3-(2-methyl-pyridin-3-yl)-phenyl]-1,3-dihydro-benzo[b][1,4]diazepin-2-one] | 192 to 194
3 | Cc1cc2c(cc1C(F)(F)F)NC(=O)CC(c1cccc(-c3ccnc(C)c3C)c1)=N2 [Example 141, 4-[3-(2,3-Dimethyl-pyridin-4-yl)-phenyl]-7-methyl-8-trifluoromethyl-1,3-dihydro benzo[b][1,4]diazepin-2-one] | 222
4 | Cc1cc(-c2cccc(C3=Nc4ccc(OC(F)(F)F)cc4NC(=O)C3)c2)cc(C)n1 [Example 213, 4-[3-(2,6-Dimethyl-pyridin-4-yl)-phenyl]-8-trifluoromethoxy-1,3-dihydro-benzo[b][1,4]diazepin-2-one] | 190 to 193
5 | CCCOc1cc2c(cc1C(F)(F)F)NC(=O)CC(c1cccc(-c3cc(C)nc(C)c3)c1)=N2 [Example 219, 4-[3-(2,6-Dimethyl-pyridin-4-yl)-phenyl]-7-propoxy-8-trifluoromethyl-1,3-dihydro-benzo[b][1,4]diazepin-2-one] | 205 to 206
6 | O=C1CC(c2cccc(-c3cccnc3)c2)=Nc2ccc(-c3ccccc3F)cc2N1 [Example 29, 8-(2-Fluoro-phenyl)-4-(3-pyridin-3-yl-phenyl)-1,3-dihydro-benzo[b][1,4]diazepin-2-one] | 208 to 209
7 | Cc1ccncc1-c1cccc(C2=Nc3cc(OCC(F)(F)F)c(C(F)(F)F)cc3NC(=O)C2)c1 [Example 232, 4-[3-(4-Methyl-pyridin-3-yl)-phenyl]-7-(2,2,2-trifluoro-ethoxy)-8-trifluoromethyl-1,3-dihydro-benzo[b][1,4]diazepin-2-one] | 198 to 200
8 | Cc1cc(-c2cccc(C3=Nc4cc(C5CC5)c(C(F)(F)F)cc4NC(=O)C3)c2)ccn1 [Example 350, 7-Cyclopropyl-4-[3-(2-methyl-pyridin-4-yl)-phenyl]-8-trifluoromethyl-1,3-dihydro-benzo[b][1,4]diazepin-2-one] | 205 to 211
9 | CCc1cnc(C)cc1-c1cccc(C2=Nc3cc(OCC(F)(F)F)c(C(F)(F)F)cc3NC(=O)C2)c1 [Example 151, 4-[3-(5-ethyl-2-methyl-pyridin-4-yl)-phenyl]-7-(2,2,2-trifluoro-ethoxy)-8-trifluoromethyl-1,3-dihydro-benzo[b][1,4]diazepin-2-one] | 169
10 | Cc1cc(-c2cccc(C3=Nc4cc(C(F)(F)F)c(C(F)(F)F)cc4NC(=O)C3)c2)cc(C)n1 [Example 415, 4-[3-(2,6-Dimethyl-pyridin-4-yl)-phenyl]-7,8-bis-trifluoromethyl-1,3-dihydro-benzo[b][1,4]diazepin-2-one] | 220
11 | Cc1cc2c(cc1C(F)(F)F)NC(=O)CC(c1cccc(-c3ccnc(C4CCCC4)c3)c1)=N2 [Example 351, 4-[3-(2-Cyclopentyl-pyridin-4-yl)-phenyl]-7-methyl-8-trifluoromethyl-1,3-dihydro-benzo[b][1,4]diazepin-2-one] | 218 to 219
12 | Cc1cc2c(cc1C(F)(F)F)NC(=O)CC(c1cccc(-c3ccnc(N4CCCC4)c3)c1)=N2 [Example 389, 7-Methyl-4-[3-(2-pyrrolidin-1-yl-pyridin-4-yl)-phenyl]-8-trifluoromethyl-1,3-dihydro-benzo[b][1,4]diazepin-2-one] | 190
13 | O=C1CC(c2cccc(-c3ccnc(C4CC4)c3)c2)=Nc2ccc(C(F)(F)F)cc2N1 [Example 346, 4-[3-(2-Cyclopropyl-pyridin-4-yl)-phenyl]-8-trifluoromethyl-1,3-dihydro-benzo[b][1,4]diazepin-2-one] | 181
14 | Cc1cc2c(cc1C(F)(F)F)NC(=O)CC(c1cccc(-c3ccccn3)c1)=N2 [Example 46, 7-Methyl-4-(3-pyridin-2-yl-phenyl)-8-trifluoromethyl-1,3-dihydro-benzo[b][1,4]diazepin-2-one] | 251 to 253
15 | CN(C)c1cc2c(cc1C(F)(F)F)NC(=O)CC(c1cccc(-c3ncccn3)c1)=N2 [Example 337, 7-Dimethylamino-4-(3-pyrimidin-2-yl-phenyl)-8-trifluoromethyl-1,3-dihydro-benzo[b][1,4]diazepin-2-one] | 221 to 223

Next, values leading:

Row | melting point [°C] | SMILES
16 | 229 | O=C1CC(c2cccc(-c3ccnc(C(F)(F)F)c3)c2)=Nc2cc(Cl)c(C(F)(F)F)cc2N1 [Example 266, 7-Chloro-8-trifluoromethyl-4-[3-(2-trifluoromethyl-pyridin-4-yl)-phenyl]-1,3-dihydro-benzo[b][1,4]diazepin-2-one]
17 | 208 | Cc1cc(-c2cccc(C3=Nc4cc(Cl)c(Cl)cc4NC(=O)C3)c2)c(C)cn1 [Example 137, 7,8-Dichloro-4-[3-(2,5-dimethyl-pyridin-4-yl)-phenyl]-1,3-dihydro-benzo[b][1,4]diazepin-2-one]
18 | 200 | Cc1cc(-c2cccc(C3=Nc4cc(C)c(C(F)(F)F)cc4NC(=O)C3)c2)cc(CO)n1 [Example 402, 4-[3-(2-Hydroxymethyl-6-methyl-pyridin-4-yl)-phenyl]-7-methyl-8-trifluoromethyl-1,3-dihydro-benzo[b][1,4]diazepin-2-one]
19 | 181 | CC(C)Cc1cc(-c2cccc(C3=Nc4ccc(C(F)(F)F)cc4NC(=O)C3)c2)ccn1 [Example 281, 4-[3-(2-Isobutyl-pyridin-4-yl)-phenyl]-8-trifluoromethyl-1,3-dihydro benzo[b][1,4]diazepin-2-one]
20 | 210 | O=C1CC(c2cccc(-c3cccnc3)c2)=Nc2ccc(F)cc2N1 [Example 7, 8-Fluoro-4-(3-pyridin-3-yl-phenyl)-1,3-dihydro-benzo[b][1,4]diazepin-2-one]
21 | 195 | CC(C)c1cc(-c2cccc(C3=Nc4cc(Cl)c(Cl)cc4NC(=O)C3)c2)ccn1 [Example 274, 7,8-Dichloro-4-[3-(2-isopropyl-pyridin-4-yl)-phenyl]-1,3-dihydro-benzo[b][1,4]diazepin-2-one]
22 | 218 to 219 | CCOc1cc2c(cc1C(F)(F)F)NC(=O)CC(c1cccc(-c3ccc(CC)nc3)c1)=N2 [Example 190, 7-Ethoxy-4-[3-(6-ethyl-pyridin-3-yl)-phenyl]-8-trifluoromethyl-1,3-dihydro-benzo[b][1,4]diazepin-2-one]
23 | 226 to 227 | Cc1cc(-c2cccc(C3=Nc4cc(C)c(Cl)cc4NC(=O)C3)c2)ncn1 [Example 309, 8-Chloro-7-methyl-4-[3-(6-methyl-pyrimidin-4-yl)-phenyl]-1,3-dihydro-benzo[b][1,4]diazepin-2-one]
24 | 163 | CCOc1ccc2c(c1)N=C(c1cccc(-c3ccnc(C)c3)c1)CC(=O)N2 [Example 59, 7-Ethoxy-4-[3-(2-methyl-pyridin-4-yl)-phenyl]-1,3-dihydro-benzo[b][1,4]diazepin-2-one]
25 | 209 | Cc1cc2c(cc1C(F)(F)F)NC(=O)CC(c1cccc(-c3ccnc(CC(C)C)c3)c1)=N2 [Example 262, 4-[3-(2-Isobutyl-pyridin-4-yl)-phenyl]-7-methyl-8-trifluoromethyl-1,3-dihydro benzo[b][1,4]diazepin-2-one]
26 | 200 to 201 | C=Cc1cc2c(cc1C(F)(F)F)NC(=O)CC(c1cccc(-c3ccnc(C)c3)c1)=N2 [Example 244, 4-[3-(2-Methyl-pyridin-4-yl)-phenyl]-8-trifluoromethyl-7-vinyl-1,3-dihydro-benzo[b][1,4]diazepin-2-one]
27 | 241 | CC(C)CNc1cc2c(cc1Cl)NC(=O)CC(c1cccc(-c3cncnc3)c1)=N2 [Example 96, 8-Chloro-7-isobutylamino-4-(3-pyrimidin-5-yl-phenyl)-1,3-dihydro-benzo[b][1,4]diazepin-2-one]
28 | 191 | CCc1cnc(C)cc1-c1cccc(C2=Nc3cc(Cl)c(Cl)cc3NC(=O)C2)c1 [Example 150, 7,8-Dichloro-4-[3-(5-ethyl-2-methyl-pyridin-4-yl)-phenyl]-1,3-dihydro-benzo[b][1,4]diazepin-2-one]
29 | 226 | O=C1CC(c2cccc(-c3ccnc(C(F)(F)F)c3)c2)=Nc2cc(Cl)c(Cl)cc2N1 [Example 267, 7,8-Dichloro-4-[3-(2-trifluoromethyl-pyridin-4-yl)-phenyl]-1,3-dihydro-benzo[b][1,4]diazepin-2-one]
30 | 198 | Cc1ncccc1-c1cccc(C2=Nc3ccc(Cl)cc3NC(=O)C2)c1 [Example 32, 8-Chloro-4-[3-(2-methyl-pyridin-3-yl)-phenyl]-1,3-dihydro-benzo[b][1,4]diazepin-2-one]
31 | 229 to 231 | Cc1cc2c(cc1Cl)NC(=O)CC(c1ccnc(-c3cccnc3)c1)=N2 [Example 291, 4-[2,3′]Bipyridinyl-4-yl-8-chloro-7-methyl-1,3-dihydro-benzo[b][1,4]diazepin-2-one]
32 | 161 | CC(C)CN(C)c1cc2c(cc1Cl)NC(=O)CC(c1cccc(-c3ccnc(CO)c3)c1)=N2 [Example 368, 8-Chloro-4-[3-(2-hydroxymethyl-pyridin-4-yl)-phenyl]-7-(isobutyl-methyl-amino)-1,3-dihydro-benzo[b][1,4]diazepin-2-one]
33 | 217 | Cc1cc2c(cc1C(F)(F)F)N=C(c1cccc(-c3ccncc3)c1)CC(=O)N2 [Example 64, 8-Methyl-4-(3-pyridin-4-yl-phenyl)-7-trifluoromethyl-1,3-dihydro-benzo[b][1,4]diazepin-2-one]
34 | 227 to 230 | O=C1CC(c2cccc(-c3ncccn3)c2)=Nc2cc(Cl)c(Cl)cc2N1 [Example 340, 7,8-Dichloro-4-(3-pyrimidin-2-yl-phenyl)-1,3-dihydro-benzo[b][1,4]diazepin-2-one]
35 | 211 to 213 | COCCNc1cc(-c2cccc(C3=Nc4cc(C)c(Cl)cc4NC(=O)C3)c2)ncn1 [Example 334, 8-Chloro-4-{3-[6-(2-methoxy-ethylamino)-pyrimidin-4-yl]-phenyl}-7-methyl-1,3-dihydro-benzo[b][1,4]diazepin-2-one]
